Where a name gives a salt, the structure may show the parent alone.
Molecular target: T1, human LOXL2 (Homo sapiens, UniProt Q9Y4K0)
T1 construct: expressed in transfected cells; 10-20x concentrated conditioned media used as the enzyme source
T1 sequence (Q9Y4K0 26-774): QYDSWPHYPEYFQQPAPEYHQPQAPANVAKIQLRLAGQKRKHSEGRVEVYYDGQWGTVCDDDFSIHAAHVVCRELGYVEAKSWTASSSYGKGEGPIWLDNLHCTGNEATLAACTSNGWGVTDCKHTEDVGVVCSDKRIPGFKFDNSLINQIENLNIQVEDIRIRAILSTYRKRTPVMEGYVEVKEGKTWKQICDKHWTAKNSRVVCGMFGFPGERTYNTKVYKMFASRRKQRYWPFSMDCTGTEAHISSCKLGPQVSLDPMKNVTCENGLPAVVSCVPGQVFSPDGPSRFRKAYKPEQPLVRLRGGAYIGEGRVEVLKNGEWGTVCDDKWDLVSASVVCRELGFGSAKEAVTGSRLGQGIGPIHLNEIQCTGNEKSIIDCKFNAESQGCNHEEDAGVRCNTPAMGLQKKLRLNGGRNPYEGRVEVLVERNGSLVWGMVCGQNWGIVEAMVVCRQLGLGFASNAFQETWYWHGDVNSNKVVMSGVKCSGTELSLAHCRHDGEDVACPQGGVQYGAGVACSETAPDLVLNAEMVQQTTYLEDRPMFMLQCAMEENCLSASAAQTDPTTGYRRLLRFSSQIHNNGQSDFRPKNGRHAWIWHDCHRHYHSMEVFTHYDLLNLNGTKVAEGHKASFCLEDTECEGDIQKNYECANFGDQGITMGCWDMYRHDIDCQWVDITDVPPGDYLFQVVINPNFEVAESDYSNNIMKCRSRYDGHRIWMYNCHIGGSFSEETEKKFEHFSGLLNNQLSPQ
Test: Human LOXL2 amine oxidase activity assay (Amplex Red fluorescence)
Format: biochemical
Details: concentrated conditioned media from CHO cells stably expressing human LOXL2; 2 h at 37° C. preincubation; DAP substrate
Method: Example B-1: Human LOXL2 Amine Oxidase Activity Assay
LOXL2 amine oxidase activity is evaluated by measuring Amplex Red fluorescence using 10-20× concentrated conditioned media from CHO cells stably expressing human LOXL2.
To assay for amine oxidase activity, 10 μL of the concentrated conditioned media is incubated with 2 μL of test compound in DMSO and 73 μL Assay Buffer (50 mM Borate Buffer, pH8) for 2 h at 37° C. After the 2 h incubation, 5 ul of 10 mM 1,5-Diaminopentane (DAP) diluted in Assay Buffer and 10 μl of Amplex Red Mix (8.5 μl Assay Buffer+0.5 μl of 10 mM Amplex Red+1 μl of 500 U/ml Horseradish Peroxidase) are added and the plate mixed and immediately placed on the FlexStaion for fluorescence measurements. Fluorescence is read in kinetic mode every 2 min for 1 hour at excitation=544 and emission=590. The amine oxidase activity is calculated from the slope of the linear portion of the curve.

SMILES	IC50 [nM]
NCc1cc(Oc2cccc(C(=O)N3C[C@@H](O)[C@H](F)C3)c2)ncn1 (racemic) [Compound 1-11, Racemic-trans-(3-((6-(aminomethyl)pyrimidin-4-yl)oxy)phenyl)(3-fluoro-4-hydroxypyrrolidin-1-yl)methanone hydrochloride]	< 100
NCc1cc(OCc2cccc(C(=O)N3CCCC(O)(C(F)(F)F)C3)c2)ncn1 (racemic) [Compound 1-35, Racemic-(3-(((6-(aminomethyl)pyrimidin-4-yl)oxy)methyl)phenyl)(3-hydroxy-3-(trifluoromethyl)piperidin-1-yl)methanone]	< 100
CN1CC(CNC(=O)c2cccc(COc3cc(CN)ncn3)c2)OC1=O (racemic) [Compound 1-36, Racemic-3-(((6-(aminomethyl)pyrimidin-4-yl)oxy)methyl)-N-((3-methyl-2-oxooxazolidin-5-yl)methyl)benzamide]	< 100
CC(Oc1cc(CN)ncn1)c1cccc(C(=O)Nc2ccccc2)c1 (racemic) [Compound 1-95, Racemic-3-(1-((6-(aminomethyl)pyrimidin-4-yl)oxy)ethyl)-N-phenylbenzamide]	100 to 1000
NCc1cc(Oc2ccc(F)cc2)ncn1 [Compound 1-1, (6-(4-Fluorophenoxy)pyrimidin-4-yl)methanamine trifluoroacetate]	< 100
NCc1cc(Oc2cccc(Oc3ccccc3)c2)ncn1 [Compound 1-2, (6-(3-Phenoxyphenoxy)pyrimidin-4-yl)methanamine hydrochloride]	< 100
NCc1cc(Oc2cccc(C(=O)Nc3ccccc3)c2)ncn1 [Compound 1-3, 3-((6-(Aminomethyl)pyrimidin-4-yl)oxy)-N-phenylbenzamide hydrochloride]	< 100
NCc1cc(Oc2cccc(C(=O)Nc3ccc(C(=O)O)cc3)c2)ncn1 [Compound 1-4, 4-(3-((6-(Aminomethyl)pyrimidin-4-yl)oxy)benzamido)benzoic acid hydrochloride]	< 100
NCc1cc(Oc2cccc(C(=O)NCc3ccc(C(=O)O)cc3)c2)ncn1 [Compound 1-5, 4-((3-((6-(Aminomethyl)pyrimidin-4-yl)oxy)benzamido)methyl)benzoic Acid Hydrochloride]	< 100
NCc1cc(Oc2cccc(C(=O)NCc3cc4ccccc4s3)c2)ncn1 [Compound 1-6, 3-((6-(Aminomethyl)pyrimidin-4-yl)oxy)-N-(benzo[b]thiophen-2-ylmethyl)benzamide hydrochloride]	< 100
NCc1cc(Oc2cccc(C(=O)NCCC(=O)O)c2)ncn1 [Compound 1-7, 3-(3-((6-(Aminomethyl)pyrimidin-4-yl)oxy)benzamido)propanoic Acid Hydrochloride]	100 to 1000
NCc1cc(Oc2cccc(C(=O)NCCCC(=O)O)c2)ncn1 [Compound 1-8, 4-(3-((6-(Aminomethyl)pyrimidin-4-yl)oxy)benzamido)butanoic Acid Hydrochloride]	100 to 1000
NCc1cc(Oc2cccc(C(=O)NCCO)c2)ncn1 [Compound 1-9, 3-((6-(Aminomethyl)pyrimidin-4-yl)oxy)-N-(2-hydroxyethyl)benzamide hydrochloride]	< 100
NCc1cc(Oc2cccc(C(=O)N3CC[C@H](O)C3)c2)ncn1 [Compound 1-10, (S)-(3-((6-(Aminomethyl)pyrimidin-4-yl)oxy)phenyl)(3-hydroxypyrrolidin-1-yl)methanone hydrochloride]	< 100
CS(=O)(=O)CCNC(=O)c1cccc(Oc2cc(CN)ncn2)c1 [Compound 1-12, 3-((6-(Aminomethyl)pyrimidin-4-yl)oxy)-N-(2-(methylsulfonyl)ethyl)benzamide hydrochloride]	< 100
NCc1cc(Oc2cccc(C(=O)NCCS(N)(=O)=O)c2)ncn1 [Compound 1-13, 3-((6-(Aminomethyl)pyrimidin-4-yl)oxy)-N-(2-sulfamoylethyl)benzamide hydrochloride]	< 100

SMILES	IC50 [nM]
NCc1cc(Oc2cccc3c2CCC(=O)N3CC(=O)O)ncn1 [Compound 1-14, 2-(5-((6-(Aminomethyl)pyrimidin-4-yl)oxy)-2-oxo-3,4-dihydroquinolin-1(2H)-yl)acetic Acid Hydrochloride]	100 to 1000
NCc1cc(Oc2cccc3c2CCC(=O)N3CCO)ncn1 [Compound 1-15, (5-((6-(Aminomethyl)pyrimidin-4-yl)oxy)-1-(2-hydroxyethyl)-3,4-dihydroquinolin-2(1H)-one hydrochloride]	< 100
COc1ccc(CN2C(=O)CCc3c(Oc4cc(CN)ncn4)cccc32)cn1 [Compound 1-16, 5-((6-(Aminomethyl)pyrimidin-4-yl)oxy)-1-((6-methoxypyridin-3-yl)methyl)-3,4-dihydroquinolin-2(1H)-one acetate]	< 100
NCc1cc(Oc2ccc3cc[nH]c3c2)ncn1 [Compound 1-17, (6-((1H-Indol-6-yl)oxy)pyrimidin-4-yl)methanamine]	< 100
NCc1cc(Oc2ccc3[nH]ccc3c2)ncn1 [Compound 1-18, (6-((1H-Indol-5-yl)oxy)pyrimidin-4-yl)methanamine trifluoroacetate]	< 100
NCc1cc(Oc2cccc3[nH]ccc23)ncn1 [Compound 1-19, (6-((1H-Indol-4-yl)oxy)pyrimidin-4-yl)methanamine]	< 100
CCn1ccc2c(Oc3cc(CN)ncn3)cccc21 [Compound 1-20, (6-((1-Ethyl-1H-indol-4-yl)oxy)pyrimidin-4-yl)methanamine]	< 100
COC(=O)Cn1ccc2c(Oc3cc(CN)ncn3)cccc21 [Compound 1-21, Methyl 2-(4-((6-(aminomethyl)pyrimidin-4-yl)oxy)-1H-indol-1-yl)acetate]	< 100
NCc1cc(Oc2cccc3c2ccn3CC(=O)O)ncn1 [Compound 1-22, 2-(4-((6-(Aminomethyl)pyrimidin-4-yl)oxy)-1H-indol-1-yl)acetic acid]	< 100
NCc1cc(Oc2cccc3c2ccn3CC(=O)N2CCCCC2)ncn1 [Compound 1-23, 2-(4-((6-(Aminomethyl)pyrimidin-4-yl)oxy)-1H-indol-1-yl)-1-(piperidin-1-yl)ethan-1-one]	100 to 1000
CN(C(=O)Cn1ccc2c(Oc3cc(CN)ncn3)cccc21)c1ccccc1 [Compound 1-24, 2-(4-((6-(Aminomethyl)pyrimidin-4-yl)oxy)-1H-indol-1-yl)-N-methyl-N-phenylacetamide]	< 100
CS(=O)(=O)CCn1ccc2c(Oc3cc(CN)ncn3)cccc21 [Compound 1-25, (6-((1-(2-(Methylsulfonyl)ethyl)-1H-indol-4-yl)oxy)pyrimidin-4-yl)methanamine]	< 100
NCc1cc(Oc2cccc3c2ccn3Cc2ccccc2)ncn1 [Compound 1-26, (6-((1-Benzyl-1H-indol-4-yl)oxy)pyrimidin-4-yl)methanamine]	< 100
COC(=O)c1cccc(Cn2ccc3c(Oc4cc(CN)ncn4)cccc32)c1 [Compound 1-27, Methyl 3-((4-((6-(aminomethyl)pyrimidin-4-yl)oxy)-1H-indol-1-yl)methyl)benzoate]	< 100
NCc1cc(Oc2cccc3c2ccn3Cc2cccc(C(=O)O)c2)ncn1 [Compound 1-28, 3-((4-((6-(Aminomethyl)pyrimidin-4-yl)oxy)-1H-indol-1-yl)methyl)benzoic acid]	< 100

Source: US20180186755A1, “LYSYL OXIDASE-LIKE 2 INHIBITORS AND USES THEREOF” (PharmAkea, Inc., priority 2015, published 2018)
